Results reported in ChEMBL document CHEMBL1828558, “Discovery of (+)-N-(3-aminopropyl)-N-[1-(5-benzyl-3-methyl-4-oxo-[1,2]thiazolo[5,4-d]pyrimidin-6-yl)-2-methylpropyl]-4-methylbenzamide (AZD4877), a kinesin spindle protein inhibitor and potential anticancer agent” (J Med Chem, 2011).

Key:
[1] = species on record: Rattus norvegicus; test: Hepatic blood flow in Wistar rat; assay type: ADME, organism-based, Liver
[2] = Half-life in rat at 1 and 5 mg/kg, iv administered as bolus dose; assay type: ADME, organism-based; set-up: dose 5 mg/kg, route intravenous; settings: in vivo
[3] = Initial plasma concentration in Wistar rat at 6 mg/kg, iv administered as a single bolus dose; assay type: ADME, organism-based; set-up: dose 6 mg/kg, route intravenous
[4] = Half-life in Wistar rat at 6 mg/kg, iv administered as a single bolus dose; assay type: ADME, organism-based; set-up: dose 6 mg/kg, route intravenous; settings: in vivo
[5] = Drug level in fiber in Hans Wistar rat hollow fiber model implanted with human COLO205 cells at 6 mg/kg, iv after 24 hrs; assay type: ADME, organism-based, COLO 205; set-up: dose 6 mg/kg, route intravenous; settings: read-out: Drug uptake
[6] = Plasma concentration in Hans Wistar rat hollow fiber model implanted with human COLO205 cells at 6 mg/kg, iv after 24 hrs; assay type: ADME, organism-based, COLO 205; set-up: dose 6 mg/kg, route intravenous
[7] = Binding affinity to L-type calcium channel in guinea pig ileum by radioligand displacement assay; assay type: tissue-based, Cavia porcellus
[8] = Clearance in nude mouse; assay type: ADME, organism-based; settings: in vivo
[9] = target: T1, Cytochrome P450 1A2 (Homo sapiens, UniProt P05177); test: Inhibition of human recombinant CYP1A2; assay type: ADME
T1 sequence (P05177 whole entry): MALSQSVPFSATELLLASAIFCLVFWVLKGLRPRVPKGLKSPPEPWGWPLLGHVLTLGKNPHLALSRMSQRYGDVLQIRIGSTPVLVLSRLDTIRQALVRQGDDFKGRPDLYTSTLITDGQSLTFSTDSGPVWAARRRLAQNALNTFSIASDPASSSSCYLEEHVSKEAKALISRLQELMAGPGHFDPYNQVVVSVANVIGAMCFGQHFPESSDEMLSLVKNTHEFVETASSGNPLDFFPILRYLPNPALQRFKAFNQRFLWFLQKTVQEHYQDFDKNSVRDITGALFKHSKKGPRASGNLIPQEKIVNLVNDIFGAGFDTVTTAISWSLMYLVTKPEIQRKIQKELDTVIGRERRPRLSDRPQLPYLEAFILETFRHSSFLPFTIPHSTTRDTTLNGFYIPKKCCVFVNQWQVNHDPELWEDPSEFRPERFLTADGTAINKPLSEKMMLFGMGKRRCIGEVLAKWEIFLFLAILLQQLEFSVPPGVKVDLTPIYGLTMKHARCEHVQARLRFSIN

[10] = target: Cytochrome P450 2D6 (Homo sapiens, UniProt P10635); test: Inhibition of human recombinant CYP2D6; assay type: ADME
[11] = target: Cytochrome P450 3A4 (Homo sapiens, UniProt P08684); test: Inhibition of human recombinant CYP3A4; assay type: ADME
[12] = target: T2, Kinesin-like protein KIF23 (Homo sapiens, UniProt Q02241); test: Inhibition of human recombinant GST-MKLP1 after 20 mins by malachite green assay
T2 sequence (Q02241 whole entry): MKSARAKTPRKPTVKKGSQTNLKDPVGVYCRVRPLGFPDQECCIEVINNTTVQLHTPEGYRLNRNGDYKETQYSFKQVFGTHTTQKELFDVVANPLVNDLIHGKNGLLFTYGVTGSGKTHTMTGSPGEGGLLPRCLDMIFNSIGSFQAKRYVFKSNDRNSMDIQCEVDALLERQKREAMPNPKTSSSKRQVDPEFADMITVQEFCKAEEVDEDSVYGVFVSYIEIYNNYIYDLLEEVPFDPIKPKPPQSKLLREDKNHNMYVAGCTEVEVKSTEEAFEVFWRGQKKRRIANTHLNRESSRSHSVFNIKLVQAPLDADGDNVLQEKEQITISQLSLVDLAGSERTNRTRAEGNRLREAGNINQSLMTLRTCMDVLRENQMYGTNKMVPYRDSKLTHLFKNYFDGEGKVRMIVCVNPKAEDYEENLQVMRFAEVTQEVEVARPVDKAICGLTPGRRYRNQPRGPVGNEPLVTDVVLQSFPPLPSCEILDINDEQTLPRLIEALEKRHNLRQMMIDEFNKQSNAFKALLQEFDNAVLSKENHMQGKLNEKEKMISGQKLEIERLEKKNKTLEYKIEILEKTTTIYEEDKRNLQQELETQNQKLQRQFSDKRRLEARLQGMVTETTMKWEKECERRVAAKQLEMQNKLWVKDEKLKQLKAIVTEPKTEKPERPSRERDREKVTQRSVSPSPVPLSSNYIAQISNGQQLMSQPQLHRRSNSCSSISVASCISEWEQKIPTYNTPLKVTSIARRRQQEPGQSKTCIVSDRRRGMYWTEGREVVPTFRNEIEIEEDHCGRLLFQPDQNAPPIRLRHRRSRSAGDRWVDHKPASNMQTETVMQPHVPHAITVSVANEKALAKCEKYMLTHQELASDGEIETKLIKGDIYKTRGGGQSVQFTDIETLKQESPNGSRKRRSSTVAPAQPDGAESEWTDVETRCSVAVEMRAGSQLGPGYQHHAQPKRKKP

Chain of Cytochrome P450 3A4 (P08684 whole entry): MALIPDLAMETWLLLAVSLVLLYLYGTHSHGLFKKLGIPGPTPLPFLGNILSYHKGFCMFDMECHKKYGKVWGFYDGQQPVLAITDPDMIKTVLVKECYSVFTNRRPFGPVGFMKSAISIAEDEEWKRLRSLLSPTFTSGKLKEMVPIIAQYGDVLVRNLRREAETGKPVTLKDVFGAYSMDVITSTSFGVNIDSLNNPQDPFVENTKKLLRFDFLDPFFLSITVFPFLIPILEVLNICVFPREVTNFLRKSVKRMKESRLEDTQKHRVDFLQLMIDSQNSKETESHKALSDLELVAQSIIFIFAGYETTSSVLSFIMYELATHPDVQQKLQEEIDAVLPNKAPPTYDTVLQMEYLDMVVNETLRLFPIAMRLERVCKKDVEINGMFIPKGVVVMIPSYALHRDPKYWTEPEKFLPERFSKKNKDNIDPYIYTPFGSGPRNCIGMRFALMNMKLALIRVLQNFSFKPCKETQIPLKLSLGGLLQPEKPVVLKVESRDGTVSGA
Chain of Cytochrome P450 2D6 (P10635 whole entry): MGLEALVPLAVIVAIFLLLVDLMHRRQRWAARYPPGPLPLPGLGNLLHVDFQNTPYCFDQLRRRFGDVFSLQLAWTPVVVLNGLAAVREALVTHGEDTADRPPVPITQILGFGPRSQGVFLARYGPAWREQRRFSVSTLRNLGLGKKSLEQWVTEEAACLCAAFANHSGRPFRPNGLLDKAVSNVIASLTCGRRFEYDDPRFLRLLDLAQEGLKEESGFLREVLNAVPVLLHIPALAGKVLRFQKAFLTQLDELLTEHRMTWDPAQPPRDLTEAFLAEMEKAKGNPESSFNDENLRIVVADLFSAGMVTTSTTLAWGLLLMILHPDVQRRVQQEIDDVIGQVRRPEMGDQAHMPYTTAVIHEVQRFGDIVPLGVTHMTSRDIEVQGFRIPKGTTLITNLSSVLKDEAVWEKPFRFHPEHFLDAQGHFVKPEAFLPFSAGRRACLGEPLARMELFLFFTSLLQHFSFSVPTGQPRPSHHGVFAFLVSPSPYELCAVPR

- QH [1]: 52%
- half-life [2]: 3.5 h
- C0 [3]: 1080 ng/mL
- half-life [4]: 3.5 h
- concentration at 24 h [5]: 30.7 ng/mL
- concentration at 24 h [6]: 2.8 ng/mL
- IC50 [7]: 2.7 µM
- clearance [8]: 17 mL/min/kg
- IC50 [9]: > 10 µM
- IC50 [10]: > 10 µM
- IC50 [11]: > 10 µM
- IC50 [12]: 50 µM
Structure (SMILES): Cc1ccc(C(=O)N(CCCN)C(c2nc3snc(C)c3c(=O)n2Cc2ccccc2)C(C)C)cc1 (single isomer, unassigned; (+)) [AZD-4877]
